These results are taken from ChEMBL document CHEMBL1123443, “Synthesis and evaluation of 1-(arylsulfonyl)-2-[(methoxycarbonyl)sulfenyl]-1-methylhydrazines++ + as antineoplastic agents” (1986).

Type in all cases: functional, Mus musculus
The subject of assay [1] is B16. The experiment in a line: Effect of compound on the body weight of mice bearing the B16 melanoma at a daily dose of 12.5 mg/kg.
Assay [2] deals with B16. The experiment in a line: Effect of compound on the survival time of mice bearing the B16 melanoma at a daily dose (mg/kg) of 50.
Assay [3] relates to B16. As to the kind of experiment: Effect of compound on the survival time of mice bearing the B16 melanoma at a daily dose of 12.5 mg/kg.
For assay [4], the system named is B16. The experiment in a line: Effect of compound on the survival time of mice bearing the B16 melanoma at a daily dose of 25 mg/kg.
Assay [5] deals with B16. The experiment in a line: Effect of compound on the body weight of mice bearing the B16 melanoma at a daily dose of 25 mg/kg.
In assay [6] the test system is B16. As to the kind of experiment: Effect of compound on the body weight of mice bearing the B16 melanoma at a daily dose of 50 mg/kg.
Assay [7] relates to L1210. The experiment in a line: Effect of compound on the survival time of mice bearing the L1210 leukemia at a daily dose (mg/kg) of 12.5-50.
The subject of assay [8] is L1210. As to the kind of experiment: Effect of compound on the body weight of mice bearing the L1210 leukemia at a daily dose of 12.5-50 mg/kg.
For assay [9], the system named is B16. As to the kind of experiment: Effect of compound on the survival time of mice bearing the B16 melanoma at a daily dose of 50 mg/kg.
Assay [10] concerns L1210. As to the kind of experiment: Effect of compound on the survival time of mice bearing the L1210 leukemia at a daily dose of 12.5-50 mg/kg.
Assay [11] concerns B16. As to the kind of experiment: Effect of compound on the body weight of mice bearing the B16 melanoma at a daily dose of 100 mg/kg.
Assay [12] deals with B16. As to the kind of experiment: Effect of compound on the survival time of mice bearing the B16 melanoma at a daily dose (mg/kg) of,50.
For assay [13], the system named is B16. The experiment in a line: Effect of compound on the survival time of mice bearing the B16 melanoma at a daily dose of 100 mg/kg.
Assay [14] concerns B16. The experiment in a line: Effect of compound on the survival time of mice bearing the B16 melanoma at a daily dose of 150 mg/kg.
Assay [15] relates to B16. The experiment in a line: Effect of compound on the body weight of mice bearing the B16 melanoma at a daily dose of 150 mg/kg.

As a reminder, the T/C is the ratio of treated to control. For `COC(=O)SNN(C)S(=O)(=O)c1ccc(OC)cc1`, the Change in weight is -0.2% in the assay with B16 [1], -6.4% in the assay with B16 [5], -18.7% in the assay with B16 [6] and -6.7% with L1210 [8]. Moreover, the T/C is reported as 177% in the assay with B16 [2], 148% with B16 [3], 160% in the assay on B16 [4] and 149% with L1210 [7].
Take `COC(=O)SNN(C)S(=O)(=O)c1ccc2ccccc2c1`: the Change in weight in the assay on B16 [1] is -0.2%; in the assay on B16 [5], 1.4%; in the assay on B16 [6], -4.8%. The results for the T/C in the assay on B16 [2], in the assay on B16 [3] and in the assay with B16 [4] were 163%, 123% and 140%, respectively.
On to `COC(=O)SNN(C)S(=O)(=O)c1ccc(Br)cc1`, for which the Change in weight in the assay on B16 [1] was -2%; in the assay with B16 [5] it was -5.5%; in the assay with B16 [6], -11.4%; with L1210 [8] it was -0.2%. Also, the T/C in the assay with B16 [2] is listed as 160%; in the assay on B16 [3], 144%; in the assay with B16 [4] it was 146%; in the assay on L1210 [7], 122%.
Consider `COC(=O)SNN(C)S(=O)(=O)c1ccccc1`, for which the Change in weight in the assay on B16 [1] is listed as -5.2%; in the assay with B16 [5] it was -13%; with B16 [6], -33.4%; with L1210 [8], -10.9%. The T/C in the assay with B16 [3] was found to be 169%; with B16 [4], 183%; in the assay with B16 [9] it was 49%; in the assay with L1210 [10] it was 113%.
Regarding `COC(=O)SNN(C)S(=O)(=O)c1ccc(C)cc1`, the Change in weight in the assay with B16 [1] is recorded as 0.7%; with B16 [5], -3.3%; in the assay with B16 [6], -17.7%; in the assay on L1210 [8], -4.2%. In addition, the T/C was determined as 232% with B16 [2], 182% with B16 [3], 199% in the assay with B16 [4] and 118% with L1210 [7].
As to `COC(=O)SNNS(=O)(=O)c1ccc(C)cc1`, the Change in weight with B16 [1] is on record as 1.6%; in the assay with B16 [5] it was 3.7%; with B16 [6], -0.4%. Besides, the values for the T/C in the assay with B16 [2], in the assay with B16 [3] and in the assay on B16 [4] were 98%, 100% and 113%, respectively.
Take `COC(=O)SNN(C)S(=O)(=O)Cc1ccccc1`: the Change in weight is given as -2.5% with B16 [1], -14.8% in the assay on B16 [5], -27.4% in the assay on B16 [6] and -8% in the assay on L1210 [8]. For the same compound, the T/C was 59% in the assay with B16 [2], 152% with B16 [3], 157% in the assay on B16 [4] and 100% in the assay with L1210 [7].
For `CN(C)/N=N/c1[nH]cnc1C(N)=O` [DACARBAZINE], the Change in weight in the assay on B16 [11] was -4.4%; with B16 [1], -2.3%; in the assay on B16 [15], -5.7%. The T/C worked out at 135% in the assay on B16 [12], 161% with B16 [13] and 177% in the assay on B16 [14].
